In patent US20240180139A1, “SOLVENT FOR INSECT REPELLENT ACTIVE INGREDIENT AND INSECT REPELLENT SYSTEM USING SAME” (Thermacell Repellents, Inc., priority 2021, published 2024):
Where two headings read alike, the source gives them in different places.

Legend:
[1] = solubility of pyrethroid active ingredients in glycol solvents
Text: In the development of active ingredient and solvent formulations, glycols, like glycol-related solvents, have physical and chemical characteristics that would not be considered an aspiration hazard. Evaluations of a range of glycol and modified glycol solvents also involved consideration of a variety of materials in contact with these solvents. […] In addition to considerations of the device, solubility of the active ingredients is a significant consideration on several levels. […] Considerations of not only the solvent material but the concentration levels of particular active ingredients ae necessary to create an efficacious formula compatible with heated repeller devices. […] Incorporating active ingredients at such high levels creates additional solubility challenges which further reduces suitable active ingredient candidates.

[2] = tested on: mosquitoes; experiment: outdoor spatial mosquito repellency
Text: Once candidate materials are identified, considerations of whether release rates relative to the selected glycols would be sufficient to deliver good spatial mosquito repellency. […] In one embodiment, an approximate 70:30 solvent ratio of two solvents is provided. In another aspect, the solvent ratio may be a ratio range such as 60-70:40-30, or 65-70:35-30, wherein the sum of specific glycol amounts totals to 100.

[3] = release / vaporization rate through heated wick of dispensing device; format: physicochemical; conditions: relative to metofluthrin and transfluthrin, in certain test conditions
Text: Once candidate materials are identified, considerations of whether release rates relative to the selected glycols would be sufficient to deliver good spatial mosquito repellency. […] In one embodiment, an approximate 70:30 solvent ratio of two solvents is provided.

OCCO [ethylene glycol]
solvent quality for insect repellents ([1]; some of the insect repellents, particularly prallethrin (FIG. 6)): not good solvents

CC(O)CO (centres unmarked) [propylene glycol]
solvent quality for insect repellents [1]: not good solvents

C/C=C/C1C(C(=O)OCc2c(F)c(F)c(COC)c(F)c2F)C1(C)C (centres unmarked) [metofluthrin]
zone of mosquito repellency ([2]; glycol as solvent, 3-4 Watt heating element): 20 foot
active ingredient concentration in the formula needed for sufficient outdoor mosquito repellency ([2]; outdoors): 4%

OCC(O)CO [glycerol]
release rate capacity [3]: limited release rate capacity
